{"source": "patent US11198691B2", "about": "“N-((het)arylmethyl)-heteroaryl-carboxamides compounds as kallikrein inhibitors” (KalVista Pharmaceuticals Limited, priority 2014, dated 2021)"}
{"molecular_target": "Human FXIa (Homo sapiens (Human), UniProt P03951)", "sequence (P03951 388-625)": "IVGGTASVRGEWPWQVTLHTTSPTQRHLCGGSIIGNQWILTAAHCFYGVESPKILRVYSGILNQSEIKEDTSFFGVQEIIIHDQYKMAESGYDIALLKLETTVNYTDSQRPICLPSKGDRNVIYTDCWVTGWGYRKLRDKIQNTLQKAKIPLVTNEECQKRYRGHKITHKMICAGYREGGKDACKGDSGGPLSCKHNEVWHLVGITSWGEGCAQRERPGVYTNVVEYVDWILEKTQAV", "sequence (P03951 19-387 partner)": "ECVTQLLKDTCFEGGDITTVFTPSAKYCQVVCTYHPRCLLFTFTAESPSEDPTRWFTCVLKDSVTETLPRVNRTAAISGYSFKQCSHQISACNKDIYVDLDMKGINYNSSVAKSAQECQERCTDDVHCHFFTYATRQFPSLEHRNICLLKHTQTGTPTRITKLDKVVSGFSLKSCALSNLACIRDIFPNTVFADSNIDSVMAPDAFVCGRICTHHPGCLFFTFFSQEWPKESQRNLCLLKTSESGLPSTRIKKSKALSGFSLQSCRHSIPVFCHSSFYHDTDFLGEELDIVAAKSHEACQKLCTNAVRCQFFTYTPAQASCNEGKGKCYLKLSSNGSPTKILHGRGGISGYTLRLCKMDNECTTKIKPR", "experiment": "Determination of the % inhibition for FXIa", "assay_type": "biochemical", "details": "40 μM test compound, 25° C., substrate Z-Gly-Pro-Arg-AFC", "method": "Determination of the % inhibition for FXIa\nHuman FXIa (Enzyme Research Laboratories) was incubated at 25° C. with the fluorogenic substrate Z-Gly-Pro-Arg-AFC and 40 μM of the test compound. Residual enzyme activity (initial rate of reaction) was determined by measuring the change in […].", "units": {"% Inhibition @ 40 μM (human FXIa)": "%"}}
{"molecule": "NC(=O)c1cccc(CNC(=O)c2cn(Cc3ccc(Cn4ccccc4=O)cc3)nc2C2CC2)c1", "note": "[Example 49, N-[(3-carbamoylphenyl)methyl]-3-cyclopropyl-1-({4-[(2-oxopyridin-1-yl)methyl]phenyl}methyl)pyrazole-4-carboxamide]", "% Inhibition @ 40 μM (human FXIa)": 0}
{"molecule": "COc1cccc(CNC(=O)c2cn(Cc3ccc(Cn4ccccc4=O)cc3)nc2C2CC2)c1F", "note": "[Example 52, 3-cyclopropyl-N-[(2-fluoro-3-methoxyphenyl)methyl]-1-({4-[(2-oxopyridin-1-yl)methyl]phenyl}methyl)pyrazole-4-carboxamide]", "% Inhibition @ 40 μM (human FXIa)": 1}
{"molecule": "Nc1nn(Cc2ccc(Cn3ccccc3=O)cc2)cc1C(=O)NCc1ccc(OC(F)(F)F)cc1", "note": "[Example 58, 3-amino-1-({4-[(2-oxopyridin-1-yl)methyl]phenyl}methyl)-N-{[4-(trifluoromethoxy)phenyl]methyl}pyrazole-4-carboxamide]", "% Inhibition @ 40 μM (human FXIa)": 0}
